# What was measured:
# [1] = target: T1, Human COX-2 (Homo sapiens, UniProt P35354); assay: COX-2 enzyme activity in human whole blood (LPS-induced, thromboxane B2 EIA); assay type: cell-based
# T1 construct: Human blood (≈50 mL) from male or female donors who had not received any aspirin or NSAIDs for 14 days was collected; endogenous in cells; host or cells: human whole blood from donors, heparinised, COX-2 induced with E. coli LPS
# T1 sequence (P35354 18-604): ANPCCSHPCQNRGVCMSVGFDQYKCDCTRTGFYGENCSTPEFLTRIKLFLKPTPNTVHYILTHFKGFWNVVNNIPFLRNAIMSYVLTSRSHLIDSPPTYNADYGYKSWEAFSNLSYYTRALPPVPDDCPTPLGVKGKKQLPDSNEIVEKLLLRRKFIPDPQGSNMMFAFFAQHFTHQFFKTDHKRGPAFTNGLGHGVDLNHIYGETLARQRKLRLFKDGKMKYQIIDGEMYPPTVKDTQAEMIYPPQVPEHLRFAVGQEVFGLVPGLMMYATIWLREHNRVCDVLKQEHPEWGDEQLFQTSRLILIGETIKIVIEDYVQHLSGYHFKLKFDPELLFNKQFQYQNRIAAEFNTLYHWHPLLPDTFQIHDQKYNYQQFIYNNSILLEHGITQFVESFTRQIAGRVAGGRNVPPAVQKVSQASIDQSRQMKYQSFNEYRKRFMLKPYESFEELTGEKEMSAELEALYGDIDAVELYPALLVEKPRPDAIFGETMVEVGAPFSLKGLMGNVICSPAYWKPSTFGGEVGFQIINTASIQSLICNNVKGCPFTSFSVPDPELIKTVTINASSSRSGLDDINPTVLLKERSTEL
# Protocol: (§1) Human blood (≈50 mL) from male or female donors who had not received any aspirin or NSAIDs for 14 days was collected at two local area blood donor centers and placed in polypropylene syringes containing sodium heparin (20 units per mL blood, final concentration). The blood was transported to the laboratory on ice packs and used within 1.5 hours of collection. Upon receipt in the laboratory, the blood was allowed to come to room temperature for 15 minutes prior to distribution in 1 mL aliquots per well of 24 well tissue culture plates. The plates were then placed on a gently rotating platform shaker in a 5% CO2 incubator at 37° C. for 15 minutes. Test compounds were dissolved in DMSO, at 1000 fold the final desired concentration, and further diluted, as indicated, in DMSO. One μL of each dilution of the test compound was added per well, in duplicate wells; wells not receiving test compound (e.g., basal, background or control wells) received 1 μL DMSO.
# (§2) (Basal or background wells not incubated with LPS received 2 μL of DMSO.) For the stimulation of COX-1, the calcium ionophore, A23187 (free acid from Sigma Chemical Co., St. Louis, Mo., Catalogue No. C7522) was added at 25 μM (1 μL of 25 mM stock in DMSO) to separate wells 4.5 hours after the addition of the test compound. (Again, basal, background or control wells not stimulated with A23187 received 1 μL of DMSO.) At 5 hours after the addition of the test compound, all incubations were terminated by placement on ice and the addition of 2 mM EGTA (100 μL of 20 mM EGTA, tetrasodium, in PBS (phosphate buffered saline) without Ca^++ and Mg^++, pH 7.2)). The resulting solutions, were transferred by polyethylene transfer pipettes to 15 mL polypropylene centrifuge tubes and centrifuged at 1200 g for 10 minutes at 4° C. One hundred μL of plasma was removed from each blood sample and added to 1 mL of methanol in new 15 mL polypropylene centrifuge tubes, vortexed, and stored overnight at −20° C. The next day, the samples were centrifuged at 2000 g for 10 minutes at 4° C. and the supernatants transferred to glass tubes and evaporated to dryness.
# [2] = target: T2, Human COX-1 (Homo sapiens, UniProt P23219); assay: COX-1 enzyme activity in human whole blood (A23187-stimulated, thromboxane B2 EIA); assay type: cell-based; settings: 100 μM test compound
# T2 construct: Human blood (≈50 mL) from male or female donors who had not received any aspirin or NSAIDs for 14 days was collected; endogenous in cells; host or cells: human whole blood from donors, heparinised, stimulated with calcium ionophore A23187
# Protocol: as §1, with “The assay for COX-1 and COX-2 enzyme activity, in the human whole blood was performed as described in Brideau et al., Inflamm Res., 45: 68-74 (1996)). Human” for “Human”
# as §2, with “To induce COX-2, lipopolysaccharide (LPS) from E. coli (LPS, serotype 026:B6 or serotype 0127:B8, Sigma Chemical Co., St. Louis, Mo., Catalogue No. L3755 or L3129, respectively) was added at 10 μg/mL (2 μL of 5 mg/mL LPS in DMSO) to appropriate wells 15 minutes after the addition of the test compound. (Basal” for “(Basal”, “dryness. The samples were assayed for thromboxane B2 using EIA kits supplied by Cayman Chemical Co. (Ann Arbor, Mich., Catalogue No. 519031) in duplicate wells after reconstitution with EIA Buffer and appropriate dilution (2000 fold for COX-1 and 500 fold for Cox-2 samples).” for “dryness.”
# The % inhibition for COX-1 and COX-2 enzyme activity in human whole blood by the test compounds, at the indicated concentrations, are given in Table 1.
# T2 sequence (P23219 24-599): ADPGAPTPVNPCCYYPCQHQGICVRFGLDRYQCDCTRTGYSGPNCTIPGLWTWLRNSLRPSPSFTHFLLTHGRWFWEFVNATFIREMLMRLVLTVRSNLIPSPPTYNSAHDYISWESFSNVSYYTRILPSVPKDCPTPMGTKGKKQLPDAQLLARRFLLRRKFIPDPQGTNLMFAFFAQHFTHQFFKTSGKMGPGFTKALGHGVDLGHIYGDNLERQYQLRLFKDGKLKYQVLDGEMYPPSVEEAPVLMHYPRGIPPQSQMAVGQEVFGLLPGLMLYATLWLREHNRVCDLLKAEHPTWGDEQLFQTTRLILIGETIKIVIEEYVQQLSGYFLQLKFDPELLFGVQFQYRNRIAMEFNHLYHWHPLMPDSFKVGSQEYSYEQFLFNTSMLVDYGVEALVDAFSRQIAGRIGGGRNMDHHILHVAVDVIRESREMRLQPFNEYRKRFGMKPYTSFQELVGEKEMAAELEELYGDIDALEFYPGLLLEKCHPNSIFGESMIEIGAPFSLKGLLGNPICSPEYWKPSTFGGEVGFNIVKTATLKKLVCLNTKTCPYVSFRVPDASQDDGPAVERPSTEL
SMILES,inhibition at 1 µM ([1]; 1 μM test compound),inhibition at 10 µM ([1]; 10 μM test compound),inhibition at 100 µM [2],melting point,COX-2 Inhibition (% at 1 μM) ([1]; 1 μM test compound),COX-2 Inhibition (% at 10 μM) ([1]; 10 μM test compound),COX-1 Inhibition (% at 100 μM) [2]
"CS(=O)(=O)c1ccc(-c2cc(CO)nn2CC2CCCCC2)cc1 [Example 1g, 1-(1-(Cyclohexylmethyl)-3-(hydroxymethyl)pyrazol-5-yl)-4-(methylsulfonyl)benzene]",0%,45%,65%,,,,
"CS(=O)(=O)c1ccc(-c2cc(CO[N+](=O)[O-])nn2CC2CCCCC2)cc1 [Example 1h, 1-(1-(Cyclohexylmethyl)-3-((nitrooxy)methyl)pyrazol-5-yl)-4-(methylsulfonyl)benzene]",10%,65%,25%,98 to 99 °C,,,
"CS(=O)(=O)c1ccc(-c2cc(COCCO)nn2CC2CCCCC2)cc1 [Example 2e, 4-(1-(Cyclohexylmethyl)-3-((2-hydroxyethoxy)methyl)pyrazol-5-yl)-1 (methylsulfonyl)benzene]",25%,65%,65%,,,,
"CS(=O)(=O)c1ccc(-c2cc(CO)nn2Cc2ccccc2)cc1 [Example 3c, 1-(3-(Hydroxymethyl)-1-benzylpyrazol-5-yl)-4-(methylsulfonyl)benzene]",10%,15%,25%,,,,
"CS(=O)(=O)c1ccc(-c2cc(CO[N+](=O)[O-])nn2Cc2ccccc2)cc1 [Example 3d, 4-(Methylsulfonyl)-1-(3-((nitrooxyl)methyl)-1-benzylpyrazol-5-yl)benzene]",20%,40%,55%,93 to 94 °C,,,
"CS(=O)(=O)c1ccc(-c2cc(/C=C/CO)nn2CC2CCCCC2)cc1 [Example 4d, 1-(3-((1E)-3-Hydroxyprop-1-enyl)-1-(cyclohexylmethyl)pyrazol-5-yl)-4-(methylsulfonyl)benzene]",25%,45%,50%,,,,
"CS(=O)(=O)c1ccc(-c2cc(/C=C/CO[N+](=O)[O-])nn2CC2CCCCC2)cc1 [Example 4e, 1-(3-((1E)-3-Nitrooxyprop-1-enyl)-1-(cyclohexylmethyl)pyrazol-5-yl)-4-(methylsulfonyl)benzene]",35%,75%,40%,44 to 47 °C,,,
"CS(=O)(=O)c1ccc(-c2cc(CCCO)nn2CC2CCCCC2)cc1 [Example 5b, 1-(1-(Cyclohexylmethyl)-3-(3-hydroxypropyl)pyrazol-5-yl)-4-(methylsulfonyl)benzene]",45%,90%,90%,,,,
"CS(=O)(=O)c1ccc(-c2cc(CCCO[N+](=O)[O-])nn2CC2CCCCC2)cc1 [Example 5c, 1-(1-(Cyclohexylmethyl)-3-(3-(nitrooxy)propyl)pyrazol-5-yl)-4-(methylsulfonyl)benzene]",75%,100%,90%,76 to 77 °C,,,
"C=Cc1cc(-c2ccc(S(C)(=O)=O)cc2)n(CC2CCCCC2)n1 [Example 6b, 1-(1-(Cyclohexylmethyl)-3-vinylpyrazol-5-yl)-4-(methylsulfonyl)benzene]",70%,100%,30%,136 to 138 °C,,,
"COC(=O)/C=C/c1cc(-c2ccc(S(C)(=O)=O)cc2)n(CC2CCCCC2)n1 [Example 7, Methyl (2E)-3-(1-(cyclohexylmethyl)-5-(4-(methylsulfonyl)phenyl)pyrazol-3-yl) prop-2-enoate]",,,,,15%,30%,5%

# Results, then the molecule that gave them:
inhibition at 1 µM ([1]; 1 μM test compound),inhibition at 10 µM ([1]; 10 μM test compound),inhibition at 100 µM [2],melting point,COX-2 Inhibition (% at 1 μM) ([1]; 1 μM test compound),COX-2 Inhibition (% at 10 μM) ([1]; 10 μM test compound),COX-1 Inhibition (% at 100 μM) [2],SMILES
15%,25%,55%,142 to 143 °C,,,,"COC(=O)c1cc(-c2ccc(S(C)(=O)=O)cc2)n(Cc2ccccc2)n1 [Example 8, Methyl 5-(4-(methylsulfonyl)phenyl)-1-benzylpyrazole-3-carboxylate]"
,,90%,141 to 142 °C,,,,"CS(=O)(=O)c1ccc(-c2cc(C(F)(F)F)cnc2C(=O)c2ccccc2)cc1 [Example 9a, 3-(4-(Methylsulfonyl)phenyl)-5-(trifluoromethyl)(2-pyridyl) Phenyl Ketone]"
35%,55%,-10%,,,,,"CS(=O)(=O)c1ccc(-c2cc(C(F)(F)F)cnc2C(C#N)c2ccccc2)cc1 (stereo not drawn) [Example 9b, 2-(3-(4-(methylsulfonyl)phenyl)-5-(trifluoromethyl)(2-pyridyl))-2-phenylethanenitrile]"
55%,50%,5%,,,,,"CS(=O)(=O)c1ccc(-c2ncccc2C(=O)c2cccc(F)c2)cc1 [Example 10c, 3-Fluorophenyl 2-(4-methylsulfonylphenyl)(3-pyridyl) ketone]"
0%,15%,0%,143 to 147 °C,,,,"CS(=O)(=O)c1ccc(-c2ncccc2C(=O)c2ccccn2)cc1 [Example 11b, 2-(4-(Methylsulfonyl)phenyl)(3-pyridyl) 2-pyridyl Ketone]"

# From patent US7244753B2, “Cyclooxygenase-2 selective inhibitors, compositions and methods of use” (NitroMed, Inc., priority 2002, dated 2007)
